In one assay the test system is SNU-638. The assay can be described thus: In vitro cell viability assay (cancer cell anti-proliferative activity), SNU-638. The class given is cell-based, human. The following applies: Homo sapiens; SNU-638 cells, treated 72 hours; read-out: In vitro cell viability assay (nM) SNU-638 IC50. The protocol: (§1) The c-MET overexpressing human gastric cancer cell lines MKN45 and SNU638 were cultured in RPMI medium with 10% fetal bovine serum, penicillin (100 U/ml), and streptomycin ([…]), and the c-MET exon 14 skipping mutant human gastric cancer cell line Hs746T was cultured in DMEM media. The c-MET overexpressing human lung cancer cell line EBC-1 was cultured in MEM media with the addition of 10% fetal bovine serum, penicillin (100U/ml), and streptomycin ([…]). The normal cell line WI-38 derived from human lung tissue was cultured in EMEM medium with the addition of 10% fetal bovine serum, penicillin (100U/ml), and streptomycin ([…]).
(§2) The compound synthesized in accordance with the present invention was prepared with a raw material solution of 10 mM dissolved in DMSO (dimethyl sulfoxide), and was sequentially diluted and processed.
(§3) In order to evaluate the inhibitory activity on cell growth, cells were dispensed in a 96-well plate at a concentration of 5,000 cells/well and then treated with the compound of the present invention prepared at various concentrations for 72 hours. The absorbance measurement at 450 nm was calculated using the GraphicPad Prism 8.0 software. The IC50 value (concentration of the compound achieving 50% cytostatic inhibition) is the average value of the measured results. […]

The target of assay [1] is T1, c-MET (Homo sapiens, UniProt P08581). The assay can be described thus: c-MET protein degradation (Simple Western) in SNU-638 cells. Further details: To evaluate the degradation efficacy of the compounds of the present invention for c-MET expressed in cells; endogenous in cells. As to conditions: SNU-638, gastric cancer cell line treated 24 hours; c-MET expression normalized to GAPDH, 0.1% DMSO = 100%; read-out: In vitro cell viability assay (nM) SNU-638 DC50. The class given is cell-based. As for the experimental part:
as §1, §2
(§4) To evaluate the degradation efficacy of the compounds of the present invention for c-MET expressed in cells, cells were dispensed in a 12-well plate at a concentration of 2 × 10^5 cells/well, and then gastric cancer cell lines were treated with samples for 24 hours and lung cancer cell lines were treated for 48 hours.
(§5) To perform a western blotting assay to confirm protein expression, cells treated with a compound treated with 40 µL of RIPA buffer with a protease inhibitor for 30 minutes, collected cell lysate using a scraper on ice, and centrifuged at 4°C 15,000 rpm for 30 min to obtain a protein-containing supernatant.
(§6) Protein expression was then measured using the Simple Western Automated Western Blot System Abby instrument using 3 µg of protein for each sample. SDS and heat-induced denaturation proteins were separated by molecular weight, attached to the capillary, reacted with anti-c-MET or anti-GAPDH antibodies, which are primary antibodies, and then reacted with HRP-conjugated secondary antibodies, and analyzed the protein expression signal with compass software.
(§7) Protein expression was normalized based on the expression value of GAPDH, and the protein expression amount in each sample was measured as a percentage (%) based on 100% of samples treated with 0.1% DMSO carrier, and DC50 (concentration of a compound where 50% protein inhibition is achieved) was calculated from the change in protein expression amount due to compound treatment.

Assay [2] deals with T1, c-MET. Kind of assay: c-MET protein degradation (Simple Western) in EBC-1 cells. The class given is cell-based. Further details: To evaluate the degradation efficacy of the compounds of the present invention for c-MET expressed in cells; endogenous in cells; host or cells: EBC-1 (human lung cancer cell line). As to conditions: EBC-1, lung cancer cell line treated 48 hours; c-MET expression normalized to GAPDH, 0.1% DMSO = 100%; read-out: In vitro cell viability assay (nM) EBC-1 DC50. The protocol:
as §1, §2, §4, §5, §6, §7

The subject of another assay is EBC-1. Kind of assay: In vitro cell viability assay (cancer cell anti-proliferative activity), EBC-1. As to conditions: Homo sapiens; EBC-1 cells, treated 72 hours; read-out: In vitro cell viability assay (nM) EBC-1 IC50. The class given is cell-based, human. As for the experimental part:
as §1, §2, §3

The subject of the next assay is Hs746T. The assay can be described thus: In vitro cell viability assay (cancer cell anti-proliferative activity), Hs746T. The class given is cell-based. As to conditions: Homo sapiens; Hs746T cells, treated 72 hours. The protocol:
as §1, §2, §3

The target of assay [3] is T2, c-MET (Homo sapiens, UniProt P08581, DEL964-1010).
T2 construct: To evaluate the degradation efficacy of the compounds of the present invention for c-MET expressed in cells; endogenous in cells; host or cells: Hs746T (human gastric cancer cell line)
The assay can be described thus: c-MET protein degradation (Simple Western) in Hs746T cells. The class given is cell-based. The following applies: Hs746T (c-MET exon 14 skipping mutant), gastric cancer cell line treated 24 hours; c-MET expression normalized to GAPDH, 0.1% DMSO = 100%; read-out: In vitro cell viability assay (nM) Hs746T DC50. The protocol:
as §1, §2, §4, §5, §6, §7

In patent EP4624472A1, “DEGRADER INCLUDING NOVEL C-MET PROTEIN LIGAND AND PHARMACEUTICAL COMPOSITION INCLUDING SAME” (Innocure Therapeutics, Inc., priority 2022, dated 2024) one finds IC50 and DC50 data, which are given here for 11 compounds.

Bounds are passed on as bounds.

T1 sequence (P08581 25-1390): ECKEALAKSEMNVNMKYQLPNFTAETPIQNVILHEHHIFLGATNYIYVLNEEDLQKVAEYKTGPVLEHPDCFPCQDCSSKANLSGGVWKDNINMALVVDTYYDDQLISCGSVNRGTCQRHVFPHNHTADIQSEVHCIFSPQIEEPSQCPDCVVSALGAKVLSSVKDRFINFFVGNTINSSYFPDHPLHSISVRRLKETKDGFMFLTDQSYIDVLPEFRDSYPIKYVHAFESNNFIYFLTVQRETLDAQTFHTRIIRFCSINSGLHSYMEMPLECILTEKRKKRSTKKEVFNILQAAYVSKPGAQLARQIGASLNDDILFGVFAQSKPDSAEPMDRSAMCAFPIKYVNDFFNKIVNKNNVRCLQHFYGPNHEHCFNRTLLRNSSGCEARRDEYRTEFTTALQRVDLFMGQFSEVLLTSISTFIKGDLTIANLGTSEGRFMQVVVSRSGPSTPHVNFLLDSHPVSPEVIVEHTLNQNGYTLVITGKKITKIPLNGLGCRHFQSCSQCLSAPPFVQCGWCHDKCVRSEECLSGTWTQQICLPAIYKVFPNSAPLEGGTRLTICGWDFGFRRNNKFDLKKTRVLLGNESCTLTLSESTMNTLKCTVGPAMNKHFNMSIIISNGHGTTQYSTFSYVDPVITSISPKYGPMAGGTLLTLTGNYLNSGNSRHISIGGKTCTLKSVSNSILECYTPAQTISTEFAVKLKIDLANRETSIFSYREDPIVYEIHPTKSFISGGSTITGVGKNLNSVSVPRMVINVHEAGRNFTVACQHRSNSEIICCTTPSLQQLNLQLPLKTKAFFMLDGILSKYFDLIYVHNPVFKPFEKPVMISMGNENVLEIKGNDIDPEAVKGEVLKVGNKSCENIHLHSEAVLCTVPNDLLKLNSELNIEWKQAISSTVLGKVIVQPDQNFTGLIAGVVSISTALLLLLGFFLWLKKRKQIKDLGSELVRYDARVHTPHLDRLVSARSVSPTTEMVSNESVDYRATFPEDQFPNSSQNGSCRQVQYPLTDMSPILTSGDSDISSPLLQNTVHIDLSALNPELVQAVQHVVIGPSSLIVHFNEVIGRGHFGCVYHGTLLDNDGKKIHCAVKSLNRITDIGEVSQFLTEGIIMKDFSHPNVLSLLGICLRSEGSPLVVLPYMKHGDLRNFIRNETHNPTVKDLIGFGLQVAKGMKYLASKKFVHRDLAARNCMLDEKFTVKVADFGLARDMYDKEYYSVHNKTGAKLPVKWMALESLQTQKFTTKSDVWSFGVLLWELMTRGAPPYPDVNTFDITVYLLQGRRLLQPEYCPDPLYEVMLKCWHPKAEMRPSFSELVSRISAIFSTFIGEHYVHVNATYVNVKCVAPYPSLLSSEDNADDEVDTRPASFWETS
T2 sequence (P08581 with tags, fused parts or gaps DEL964-1010 limits assumed): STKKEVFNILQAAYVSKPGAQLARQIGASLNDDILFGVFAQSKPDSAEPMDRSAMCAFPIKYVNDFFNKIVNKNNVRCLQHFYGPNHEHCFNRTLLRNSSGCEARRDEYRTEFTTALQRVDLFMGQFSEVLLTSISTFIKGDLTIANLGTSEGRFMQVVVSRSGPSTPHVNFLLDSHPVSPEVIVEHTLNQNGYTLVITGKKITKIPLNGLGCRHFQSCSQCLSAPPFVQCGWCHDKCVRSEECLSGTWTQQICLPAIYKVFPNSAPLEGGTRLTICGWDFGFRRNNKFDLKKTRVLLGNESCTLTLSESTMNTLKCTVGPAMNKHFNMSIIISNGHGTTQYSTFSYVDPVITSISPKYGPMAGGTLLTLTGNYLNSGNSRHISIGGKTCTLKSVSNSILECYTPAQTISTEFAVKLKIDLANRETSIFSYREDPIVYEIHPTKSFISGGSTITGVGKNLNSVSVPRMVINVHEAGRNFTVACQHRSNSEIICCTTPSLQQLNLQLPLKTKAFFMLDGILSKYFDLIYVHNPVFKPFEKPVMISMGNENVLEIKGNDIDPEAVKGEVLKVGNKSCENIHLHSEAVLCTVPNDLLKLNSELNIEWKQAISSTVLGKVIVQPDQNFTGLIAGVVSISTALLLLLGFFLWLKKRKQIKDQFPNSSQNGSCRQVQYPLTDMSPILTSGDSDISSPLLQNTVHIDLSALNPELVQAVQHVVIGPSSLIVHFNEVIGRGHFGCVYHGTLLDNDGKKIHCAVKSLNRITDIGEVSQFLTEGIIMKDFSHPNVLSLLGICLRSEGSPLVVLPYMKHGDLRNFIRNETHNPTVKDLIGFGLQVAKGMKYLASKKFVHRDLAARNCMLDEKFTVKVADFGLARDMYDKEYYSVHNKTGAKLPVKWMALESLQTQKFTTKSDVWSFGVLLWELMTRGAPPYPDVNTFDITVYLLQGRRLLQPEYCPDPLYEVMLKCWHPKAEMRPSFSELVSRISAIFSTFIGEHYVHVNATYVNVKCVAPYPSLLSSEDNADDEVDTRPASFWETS
T2 sequence (P08581 25-307 partner limits assumed): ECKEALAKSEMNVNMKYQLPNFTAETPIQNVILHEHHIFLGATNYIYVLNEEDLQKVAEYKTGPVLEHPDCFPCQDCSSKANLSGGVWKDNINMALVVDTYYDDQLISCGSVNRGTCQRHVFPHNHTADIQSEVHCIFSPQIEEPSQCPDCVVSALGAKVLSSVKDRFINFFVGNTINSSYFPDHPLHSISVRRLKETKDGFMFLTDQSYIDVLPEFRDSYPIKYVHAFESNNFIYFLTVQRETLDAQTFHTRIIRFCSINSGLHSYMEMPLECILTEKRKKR

Consider `N#Cc1cccc(-c2ccc(=O)n(Cc3cccc(-c4ncc(OCCN5CCN(c6ccc(NC7CCC(=O)NC7=O)cc6F)CC5)cn4)c3)n2)c1` (stereo not shown) [Example E-6, 3-(1-(3-(5-(2-(4-(4-((2,6-dioxopiperidin-3-yl)amino)2-fluorophenyl)piperazine-1-yl)ethoxy)pyrimidine-2-yl)benzyl)6-oxo-1,6-dihydropyridazine-3-yl)benzonitrile], for which the IC50 in the assay with SNU-638 and in the assay with EBC-1 was at most 100 nM each time. For the same compound, the DC50 on c-MET [1] and at c-MET [2] was over 1000 nM each time.

Take `Cn1cc(-c2cnc3c(nnn3C[C@@H]3CN(c4ncc(N5CC(CN6CCN(c7ccc8c(=O)n(C9CCC(=O)NC9=O)ncc8c7)CC6)C5)cn4)CCO3)n2)cn1` (stereo partly drawn) [Example D-1, 3-(6-(4-((1-(2-((S)-2-((5-(1-methyl-1H-pyrazole-4-yl)-1H-[1,2,3]triazolo[4,5-b]pyrazine-1-yl)methyl)morpholine-5-il)azetidin-3-il)methyl)piperazine-1-il)piperazine-1-il)1-oxopthalazine-2(1H)-day)piperidine-2,6-dione]: the IC50 with SNU-638, in the assay on Hs746T and in the assay on EBC-1 was at most 100 nM in each case. Further, the DC50 – broadly, the midpoint of the concentration-degradation curve – at c-MET [1] is over 1000 nM; on c-MET [2], at most 100 nM; at c-MET [3] it was at most 100 nM.

As for `N#Cc1cccc(-c2ccc(=O)n(Cc3cccc(-c4ncc(N5CCN(CC6CCN(c7ccc(NC8CCC(=O)NC8=O)cc7F)CC6)CC5)cn4)c3)n2)c1` (stereo not shown) [Example E-8], the IC50 in the assay with SNU-638, in the assay on Hs746T and in the assay on EBC-1 was at most 100 nM throughout. Further, the DC50 is over 1000 nM at c-MET [1], at most 100 nM at c-MET [2] and at most 100 nM at c-MET [3].

Consider `N#Cc1cccc(-c2ccc(=O)n(Cc3cccc(-c4ncc(OC[C@H]5CN(c6ccc7c(=O)n(C8CCC(=O)NC8=O)ncc7c6)CCO5)cn4)c3)n2)c1` (stereo partly drawn) [Example E-2, 3-(1-(3-(5-(((2R)-4-(2-(2,6-dioxopiperidin-3-yl)-1-oxo-1,2-dihydrophthalazine-6-yl)morpholine-2-yl)methoxy)pyrimidin-2-yl)benzyl)6-oxo-1,6-dihydropyridazine-3-il)benzonitrile], for which the IC50 in the assay on Hs746T and in the assay on EBC-1 was at most 100 nM each time. Also, the DC50 at c-MET [2] and at c-MET [3] was at most 100 nM in each case.

As for `Cn1cc(-c2cnc3c(nnn3C[C@@H]3CN(c4ncc(N5CC(CN6CCN(CC7CCN(c8ccc(NC9CCC(=O)NC9=O)cc8F)CC7)CC6)C5)cn4)CCO3)n2)cn1` (stereo partly drawn) [Example D-5], the IC50 (commonly the concentration that gives 50% inhibition) in the assay with SNU-638 was at most 100 nM; with Hs746T, over 1000 nM; with EBC-1 it was at most 100 nM. The DC50 at c-MET [1], at c-MET [2] and on c-MET [3] was over 1000 nM in each case.

For `Cc1nn(C2CCC(=O)NC2=O)c(=O)c2ccc(N3CCN(CCOc4cnc(-c5cccc(Cn6nc(-c7cccc(C#N)c7)ccc6=O)c5)nc4)CC3)cc12` (stereo not shown) [Example E-5], the half-inhibitory concentration (IC50) in the assay with SNU-638, in the assay with Hs746T and with EBC-1 was at most 100 nM in each case. Moreover, the DC50 on c-MET [1], at c-MET [2] and on c-MET [3] was at most 100 nM in each case.

As for `N#Cc1cccc(-c2ccc(=O)n(Cc3cccc(-c4ncc(N5CCN(CC6CN(c7ccc(NC8CCC(=O)NC8=O)cc7F)C6)CC5)cn4)c3)n2)c1` (stereo not shown) [Example E-7], the concentration for half-maximal inhibition (IC50) with SNU-638 and with EBC-1 was at most 100 nM in each case. Moreover, the DC50 on c-MET [1] and at c-MET [2] was at most 100 nM throughout.

`N#Cc1cccc(-c2ccc(=O)n(Cc3cccc(-c4ncc(OCCN5CCN(c6ccc7c(=O)n(C8CCC(=O)NC8=O)ncc7c6)CC5)cn4)c3)n2)c1` (stereo not shown) [Example E-4]: the half-inhibitory concentration (IC50) in the assay with SNU-638, with Hs746T and in the assay with EBC-1 was at most 100 nM throughout. The values for the DC50 at c-MET [1], at c-MET [2] and on c-MET [3] were over 1000 nM, at most 100 nM and at most 100 nM, respectively.

In the case of `N#Cc1cccc(-c2ccc(=O)n(Cc3cccc(-c4ncc(OC[C@@H]5CN(c6ccc(NC7CCC(=O)NC7=O)cc6F)CCO5)cn4)c3)n2)c1` (stereo partly drawn) [Example E-3, 3-(1-(3-(5-(((2R)-4-(4-((2,6-dioxopiperidin-3-yl)amino)-2-fluorophenyl)morpholine-2-yl)methoxy)pyrimidine-2-yl)benzyl)6-oxo-1,6-dihydropyridazine-3-il)benzonitrile], the IC50 with SNU-638 and in the assay on EBC-1 was at most 100 nM each time. Also, the half-maximal degradation concentration (DC50) at c-MET [1] and at c-MET [2] was over 1000 nM throughout.

`Cc1nn(C2CCC(=O)NC2=O)c(=O)c2ccc(N3CCN(CC4CCN(CC5CN(c6cnc(N7CCO[C@H](Cn8nnc9nc(-c%10cnn(C)c%10)cnc98)C7)nc6)C5)CC4)CC3)cc12` (stereo partly drawn) [Example D-4]: the IC50 with SNU-638, in the assay on Hs746T and in the assay with EBC-1 was at most 100 nM in each case. Further, the DC50 was at most 1000 nM on c-MET [1], at most 100 nM on c-MET [2] and at most 100 nM on c-MET [3].

For `Cc1nn(C2CCC(=O)NC2=O)c(=O)c2ccc(N3CCO[C@@H](COc4cnc(-c5cccc(Cn6nc(-c7cccc(C#N)c7)ccc6=O)c5)nc4)C3)cc12` (stereo partly shown) [Example E-1], the IC50 in the assay on SNU-638, with Hs746T and in the assay on EBC-1 was at most 100 nM throughout. The DC50 on c-MET [1] is over 1000 nM; on c-MET [2] it was at most 100 nM; at c-MET [3], at most 100 nM.
